Read-outs that look alike come from different tables or passages of the source.
What was measured:
[1] = tested on: A2780 human ovarian carcinoma cells; experiment: In vitro cytotoxic activity of the combination with oxaliplatin (cell proliferation, cellular ATP monitoring); format: cell-based; settings: for IC50: single agent, A2780, oxaliplatin 1 hour, compound of formula (I) 24 hours, counted 72 hours after first treatment
Protocol: (§1) Exponentially growing A2780 human ovarian carcinoma cells were seeded and incubated at 37° C. in a humidified 5% CO2 atmosphere. After 24 hours, scalar doses of oxaliplatin were added to the medium for 1 hour, cells were washed and compound of formula (I) added for 24 hours. Cells were then washed and counted 72 hours after the first treatment. Cell proliferation was determined by a cellular adenosine triphosphate monitoring system. Cell proliferation was compared to control cells. The concentration inhibiting cell proliferation by 50% (IC50) was calculated.
(§2) The combination indices (C.I.) were calculated using a computer program for multiple drug effect analysis based on the equation of Chou-Talalay (Adv Enzyme Regul 1984; 22:27-55) for mutually nonexclusive drugs, where a C.I. of <1 indicates a more than additive effect.

[2] = tested on: A2780 human ovarian carcinoma cells; experiment: In vitro cytotoxic activity of the combination with SN-38 (cell proliferation, cellular ATP monitoring); format: cell-based; settings: for IC50: single agent, A2780, SN-38 1 hour, compound of formula (I) 24 hours, counted 72 hours after first treatment
Protocol: as §1, with “SN38 is the active metabolite of irinotecan, from which is obtained by hydrolysis. Exponentially” for “Exponentially”, “SN-38” for “oxaliplatin”
as §2

[3] = tested on: N-592 human small cell lung cancer tumors; settings: for T − C: time to reach 1 g; for Toxicity: male, Balb Nu/Nu (athymic), mouse, in vivo, po, 17 days
Protocol: Balb, Nu/Nu male mice, from Harlan (Italy), were maintained in cages with paper filter cover, food and bedding sterilized and water acidified. Fragments of N-592 human small cell lung cancer tumors were implanted subcutaneously in athymic mice.
(§3) The treatment started when tumors were palpable. Both compounds were prepared immediately before treatment.
(§4) Topotecan was administered by intravenous route in a volume of 10 ml/kg at the dose of 6 mg/kg on days 1, 5, 9, 13, 17. […] Tumor growth and body weight were measured every 3 days. Tumor growth was assessed by caliper. The two diameters were recorded and the tumor weight was calculated according the following formula: length (mm)×width^2/2. The effect of the antitumor treatment was evaluated as the delay in the onset of an exponential growth of the tumor (see for references Anticancer drugs 7:437-60, 1996). This delay (T-C value) was defined as the difference of time (in days) required for the treatment group (T) and the control group (C) tumors to reach a predetermined size (1 g). Toxicity was evaluated on the basis of body weigh reduction.

[4] = tested on: A2780 human ovarian carcinoma cells; experiment: In vitro cytotoxic activity of the combination with gemcitabine (cell proliferation, cellular ATP monitoring); format: cell-based; settings: for IC50: Homo sapiens, single agent, A2780, compound of formula (I) 24 hours, gemcitabine 1 hour, counted 72 hours after first treatment
Protocol: as §1, with “the compound of formula (I)” for “oxaliplatin”, “24 hours,” for “1 hour,”, “gemcitabine” for “compound of formula (I)”, “1 hour.” for “24 hours.”
as §2

[5] = tested on: U87-MG human glioblastoma; settings: for T − C: time to reach 1 g; for Toxicity: male, Balb Nu/Nu (athymic), mouse, in vivo, po, 7 days
Protocol: Balb, Nu/Nu male mice, from Harlan (Italy), were maintained in cages with paper filter cover, food and bedding sterilized and water acidified. Fragments of U87-MG human glioblastoma were implanted subcutaneously in athymic mice. […] The treatment with temozolomide started when tumors were palpable. Compounds were prepared immediately before treatment.
as §4, with “Temozolomide” for “Topotecan”, “orally” for “by intravenous route”, “25” for “6”, “for 5 consecutive days.” for “on days 1, 5, 9, 13, 17.”, “references,” for “references”, “7:437-60,1996).” for “7:437-60, 1996).”

[6] = tested on: HCT-116 human colon carcinoma; experiment: In vivo antitumor efficacy in combination with 5-FU, subcutaneous xenograft; settings: for T − C: time to reach 1 g
Protocol: Balb, Nu/Nu male mice, from Harlan (Italy), were maintained in cages with paper filter cover, food and bedding sterilized and water acidified. Fragments of HCT-116 human colon carcinoma were implanted subcutaneously in athymic mice.
as §3
5-FU was administered by intravenous route in a volume of 10 ml/kg at the dose of 50 mg/kg on days 1, 8. […] Toxicity was evaluated on the basis of body weigh reduction.

[7] = compound of formula (I) 20 mg/kg orally twice a day, days 1-7
[8] = compound of formula (I) 40 mg/kg orally twice a day, days 1-7
[9] = temozolomide 25 mg/kg orally, days 1-5

## O=C1[O][Pt]2([NH][C@@H]3CCCC[C@H]3[NH]2)[O]C1=O [Oxaliplatin, oxaliplatin, reference compound]
[1]
  IC50: 2470 nM

## CCc1c2c(nc3ccc(O)cc13)-c1cc3c(c(=O)n1C2)COC(=O)[C@]3(O)CC [SN-38, reference compound]
[2]
  IC50: 39 nM

## CNC(=O)c1nn(C)c2c1C(C)(C)Cc1cnc(Nc3ccc(N4CCN(C)CC4)cc3)nc1-2 [compound of formula (I), 8-[4-(4-methyl-piperazin-1-yl)-phenylamino]-1,4,4-trimethyl-4,5-dihydro-1H-pyrazolo[4,3-h]quinazoline-3-carboxylic acid methylamide]
[3]; Compound of formula (I) 20 mg/kg orally twice a day, days 1-17
  T − C: 1.61 days
[3]; Compound of formula (I) 30 mg/kg orally twice a day, days 1-17
  T − C: 2.98 days
[3]; compound of formula (I) combined with topotecan, N-592 xenograft
  combination effect: clear synergistic effect
[3]; 20 mg/kg
  Toxicity: 0/7
[3]; 30 mg/kg
  Toxicity: 0/7
[1]; Homo sapiens
  IC50: 876 nM
[1]; compound of formula (I) combined with oxaliplatin, human tumor cells
  combination effect: more than additive (i.e. synergic) effect
[4]
  IC50: 419 nM
[4]; compound of formula (I) combined with gemcitabine, human tumor cells
  combination effect: more than additive (i.e. synergic) effect
[5]; [7]
  Tumor-free mice: 0/8
  T − C: 1.74 days
[5]; [8]
  Tumor-free mice: 0/8
  T − C: 7.14 days
[5]; compound of formula (I) combined with temozolomide, U87-MG xenograft
  combination effect: clear synergic effect
[5]; 20 mg/kg
  Toxicity: 0/8
[5]; 40 mg/kg
  Toxicity: 0/8
[6]; Compound of formula (I) 20 mg/kg orally twice a day, days 2-7 and 9-14
  T − C: 4.93 days
[6]; compound of formula (I) combined with 5-FU, HCT-116 xenograft
  combination effect: clear synergistic effect
[6]; male, Balb Nu/Nu (athymic), mouse, in vivo, po, 20 mg/kg
  Toxicity: 0/7
[2]; Homo sapiens
  IC50: 690 nM
[2]; compound of formula (I) combined with SN-38, human tumor cells
  combination effect: more than additive (i.e. synergic) effect

## Cn1nnc2c(C(N)=O)ncn2c1=O [temozolomide, reference compound]
[5]; [9]
  Tumor-free mice: 1/8
  T − C: 30.88 days

## CC[C@@]1(O)C(=O)OCc2c1cc1n(c2=O)Cc2cc3c(CN(C)C)c(O)ccc3nc2-1 [topotecan, reference compound]
[3]; topotecan 6 mg/kg intravenous, days 1, 5, 9, 13, 17
  T − C: 5.64 days

## Nc1ccn([C@@H]2O[C@H](CO)[C@@H](O)C2(F)F)c(=O)n1 [Gemcitabine, gemcitabine, reference compound]
[4]
  IC50: 364 nM

## O=c1[nH]cc(F)c(=O)[nH]1 [5-FU, 5-fluorouracil, reference compound]
[6]; 5-FU 50 mg/kg intravenous, days 1, 8
  T − C: 2.17 days

Reference: patent publication US8518930B2, “Therapeutic combination comprising a CDKS inhibitor and an antineoplastic agent” (Nerviano Medical Sciences S.r.l., priority 2008, dated 2013)
